Test results taken from patent US20120201768A1, “COSMETIC COMPOSITIONS COMPRISING FICUS SERUM FRACTION AND METHODS TO REDUCE THE APPEARANCE OF SKIN HYPERPIGMENTATION” (priority 2010, published 2012).

Tested on: hyperpigmented spots
Assay: In vivo testing for hyperpigmented spot reduction and melanin evenness (9 week split face study)
Design: species or system humans
Conditions: for Melanin Evenness versus Vehicle / NC2 SAF (spot area fraction) versus Vehicle: vehicle+0.55% FSF or vehicle+5% Niacinamide, twice daily, split face
Experimental: A 9 week in-vivo study was conducted using a round robin, vehicle controlled, split face design including a 1 week normalization period with 270 subjects. The 270 subjects were screened according to inclusion/exclusion criteria which included the following:
Has hyperpigmented spots around cheek and/or periorbital area on both sides of the face.
Has at least 1 hyperpigmented spot of 8-10 mm diameter, 4 spots of 4-6 mm or 10 spots of 2-3 mm diameter (sun spots, freckles, or melasma spots) or equivalent spot area in the cheek area on each side of their face.
Is willing to refrain from sun exposure by using supplied UV lotion and physical UV blocks, such as a hat, to avoid facial sunburn, tanning or wind burn.
Has been diagnosed as having atopy, eczema, psoriasis, or other chronic skin diseases.
Has obvious signs of facial skin disease (e.g., more than 5 pimples, areas of red scaling skin, superficial thin blood vessels, etc.).
Has significant areas of discoloration or scarring on the face.
Has more than 3 prominent moles (<3 mm) on the face.
Two hundred and seventy subjects were recruited for the study. […] Each subject received two coded test formulations for twice daily application to each half of the face. Images of the facial treatment sites were captured at baseline (week 0), and after 4 and 8 weeks of treatment and analyzed for changes to skin color and spot size and color. The product formulations included a vehicle control, the vehicle+0.55% FSF, and the vehicle+5% vitamin B3 compound (Niacinamide).
Noncontact spectrophotometric intracutaneous analysis (SiaScopy, Astron Clinica, UK) was used to collect and analyze the subject images. The method used a digital camera (e.g., Fuji S2 digital SLR) as a […] and a flash lighting source (e.g., Sigma Super flash light source) to recover facial chromophore information. A cross polarized filter was placed in front of the camera and the lighting source to eliminate specular reflection.
Chromophore mapping of the concentration and distribution of eumelanin (melanin) and oxyhaemoglobin produces grayscale concentration maps of each of these chromophores. Image analysis software, such as Optimas 6.5, can be used to select a region of interest in each chromophore map from which mean grayscale values and spot area fraction are calculated. Spot area fraction refers to total area occupied by melanin spots as a percentage of the whole region of interest. A description of one type of chromophore mapping can be found in EP 1,810,614 and “The Distribution of Melanin in Skin Determined In Vivo”, British Journal of Dermatology, 2007, pp 620-628.
Table 15 summarizes the image analysis data, wherein SAF is the mean Spot Area Fraction and A SAF is the mean change in Spot Area Fraction from baseline (week 0).

Structure (SMILES): NC(=O)c1cccnc1 [Niacinamide]
- Melanin Evenness versus Vehicle (4 weeks): ns (ns = not significant (p > 0.3))
- NC2 SAF (spot area fraction) versus Vehicle (4 weeks): ns (ns = not significant (p > 0.3))
- Melanin Evenness versus Vehicle (8 weeks): Sig
- NC2 SAF (spot area fraction) versus Vehicle (8 weeks): Sig
- reduction of hyperpigmented spots (in words) (after 8 weeks, vehicle+0.55% FSF, vehicle+5% vitamin B3, control): best performer
